Columns and labels:
[1] = biological target: T1, cAMP and cAMP-inhibited cGMP 3',5'-cyclic phosphodiesterase 10A (Homo sapiens, UniProt Q9Y233); assay: Activity Assay: A human acute lymphoblastic […] T cell line MOLT-4 (which can be purchased under ATCC No. CRL-1582 from ATCC) was cultured in an RPMI1640 medium containing 10% fetal bovine serum to obtain 5108 MOLT-4 cells. The cells were recovered by centrifugation and suspended in 10 ml of buffer solution A (25 mM Tris-HCl, 5 mM 2-mercaptoethanol, 2 mM benzamidine, 2 mM EDTA, and 0.1 mM 4-(2-aminoethyl)benzenesulfonyl hydrochloride, pH 7.5). The cells were homogenized using a Polytron homogenizer and centrifuged (4° C., 25,000 g, 10 minutes). Then, the supernatant was further ultracentrifuged (4° C., 100,000 g, 60 minutes). The obtained supernatant was filtered through a 0.2um filter to obtain a soluble fraction.HiTrap Q HP column (5 ml2, GE Healthcare Japan Corp.) equilibrated with buffer solution A was charged with the obtained soluble fraction. Phosphodiesterase was eluted with 300 ml of buffer solution A containing a linear gradient solution of 0 to 0.8 M NaCl to recover sixty 5-ml fractions. Each fraction was tested for cAMP-metabolizing phosphodiesterase activity. […] In order to confirm whether or not PDE10A mRNA was expressed in the MOLT-4 cells, total RNA was prepared from the MOLT-4 cells according to a standard method and analyzed by RT-PCR using PDE10A gene-specific primers (PDE10A sense primer: 5'-[…]-3' (SEQ ID NO: 1) and PDE10A antisense primer: 5'-[…]-3' (SEQ ID NO: 2)). As a result, PDE10A mRNA was detected from the total RNA of the MOLT-4 cells. On the other hand, total RNA was prepared from Jurkat cells, one type of human T cell, and similarly subjected to RT-PCR. As a result, PDE10A mRNA was rarely detected. An active peak centered around 250 mM NaCl was not observed in fractions obtained by the treatment of Jurkat cells in the same way as above. Eur J Biochem. 1999, 266 (3), 1118-2 has reported that PDE10A from the rat striatum and testis is eluted as an active peak centered around 250 mM NaCl.; format: cell-based
[2] = biological target: T1, cAMP and cAMP-inhibited cGMP 3',5'-cyclic phosphodiesterase 10A; assay: Activity Assay: Inhibitory activity-1 assay: To a solution containing 20 mM Tris-HCl (pH 7.5), 1 mM MgCl2, 100 μM EDTA, 330 μg/ml bovine serum albumin, 50 kU/ml 5′-nucleotidase, 0.1 μCi 3H-cAMP (64 nM cAMP), and PDE10A (H-PDE10A2, Human Phosphodiesterase 10A2, Scottish Biomedical), a test compound was added, and the mixture was reacted at 25° C. for 2 hours. To the reaction solution, QAE-Sephadex (17-0190-01, GE Healthcare Japan Corp.) suspended in 10 mM HEPES-Na (pH 7.0) (hereinafter, also referred to as a “QAE-Sephadex suspension”) was added, and the mixture was shaken for 1 minute and left standing for 5 minutes to obtain a supernatant. To the supernatant, a QAE-Sephadex suspension was further added, and the mixture was shaken for 1 minute and left standing for 5 minutes. Then, the obtained supernatant was transferred to LumaPlate (PerkinElmer, Inc.) and assayed using a radiation counter (TopCount NXT, PerkinElmer, Inc.).

T1 sequence (Q9Y233 whole entry): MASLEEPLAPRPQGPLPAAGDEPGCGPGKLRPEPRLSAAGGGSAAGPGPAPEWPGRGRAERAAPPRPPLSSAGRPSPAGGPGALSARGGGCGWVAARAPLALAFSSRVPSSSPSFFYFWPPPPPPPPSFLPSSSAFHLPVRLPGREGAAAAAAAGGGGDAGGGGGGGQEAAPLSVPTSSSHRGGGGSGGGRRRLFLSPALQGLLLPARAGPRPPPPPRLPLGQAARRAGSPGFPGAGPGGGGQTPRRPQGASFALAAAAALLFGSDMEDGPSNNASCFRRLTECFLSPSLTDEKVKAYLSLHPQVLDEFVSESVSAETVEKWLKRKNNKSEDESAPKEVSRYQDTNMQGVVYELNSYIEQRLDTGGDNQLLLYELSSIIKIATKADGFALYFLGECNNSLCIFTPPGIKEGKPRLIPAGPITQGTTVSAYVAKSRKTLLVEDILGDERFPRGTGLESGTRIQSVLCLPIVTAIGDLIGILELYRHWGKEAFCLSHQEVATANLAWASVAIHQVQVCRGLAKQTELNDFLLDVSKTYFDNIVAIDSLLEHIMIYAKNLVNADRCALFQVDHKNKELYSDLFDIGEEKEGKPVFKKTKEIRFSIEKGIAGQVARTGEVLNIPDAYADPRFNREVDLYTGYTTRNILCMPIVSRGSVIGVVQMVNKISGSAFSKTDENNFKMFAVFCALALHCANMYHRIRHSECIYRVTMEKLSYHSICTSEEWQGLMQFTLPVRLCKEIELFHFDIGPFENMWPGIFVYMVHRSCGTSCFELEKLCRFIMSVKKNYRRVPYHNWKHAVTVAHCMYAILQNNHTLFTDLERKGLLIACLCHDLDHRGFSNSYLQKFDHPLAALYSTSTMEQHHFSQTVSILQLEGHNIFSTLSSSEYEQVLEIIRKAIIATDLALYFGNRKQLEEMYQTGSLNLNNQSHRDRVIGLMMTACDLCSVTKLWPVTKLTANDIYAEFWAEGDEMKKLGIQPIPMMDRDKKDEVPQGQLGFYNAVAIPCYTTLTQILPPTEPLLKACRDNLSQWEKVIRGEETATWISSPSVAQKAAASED

| IC50 [1] | SMILES | IC50 [2] |
| --- | --- | --- |
| 1.3 nM | COCc1ccc(C(C)=O)c2sc(C(=O)Nc3ccc4c(CN5CCOCC5)cccc4n3)c(C)c12 | – |
| 1 nM | COCc1ccc(C(C)=O)c2sc(C(=O)Nc3ccc4c(COC(=O)CCC(=O)O)cccc4n3)c(C)c12 | – |
| 1.2 nM | COCc1ccc(C(C)=O)c2sc(C(=O)Nc3ccc4c(CN5CC[C@@H](F)C5)cccc4n3)c(C)c12 | – |
| – | COCc1ccc(C(C)=O)c2sc(C(=O)Nc3ccc4c(COP(=O)(O)O)cccc4n3)c(C)c12 | 0.99 nM |
| 0.31 nM | COCc1ccc(C(C)=O)c2sc(C(=O)Nc3ccc4c(C(=O)N5CCN(C)CC5)cccc4n3)c(C)c12 | – |
| 0.45 nM | COCc1ccc(C(C)=O)c2sc(C(=O)Nc3cc(N(C)C)c4ccccc4n3)c(C)c12 | – |
| 1.1 nM | COCc1ccc(C(C)=O)c2sc(C(=O)Nc3ccc4ccccc4n3)c(C)c12 | – |
| 1.8 nM | COCc1ccc(C(C)=O)c2sc(C(=O)Nc3ccc4c(CN(C)C)cccc4n3)c(C)c12 | – |
